{"source": "patent US11339171B2", "about": "“MDM2 inhibitors” (Gan & Lee Pharmaceuticals, priority 2017, dated 2022)", "key": {"[1]": {"test_system": "human osteosarcoma cell line SJSA-1", "experiment": "Inhibition of proliferation of human osteosarcoma cell line SJSA-1 (DAPI staining, In Cell Analyzer)", "conditions": "Homo sapiens, SJSA-1, 72 h, read-out: IC50 (nM), inhibitory activity on proliferation of human osteosarcoma cell line SJSA-1, SJSA-1, incubated 72 h", "description": "2.2 Experiment Preparation:\n2.2.1 Preparation of a culture medium for human osteosarcoma cell line SJSA-1: RPMI1640+10% FBS+1% penicillin/streptomycin\n2.2.2 Preparation of a test compound solution:\na. the test compound solution with a certain concentration was taken, and diluted with the culture medium to obtain a compound solution with a final concentration of 20 μM;\nb. 200 μL of a culture medium containing 0.2% DMSO (dimethyl sulfoxide) was added into H2-H10 of a 96-well plate; 300 μl of the above solution was added into H1; and\nc. 100 μL was taken out from well H1, added into H2, and mixed well; then 100 μl of the resultant solution was taken and added into H3, and dilution was carried out in sequence until H9 to obtain the 3-fold serial dilution of the test compound.\n2.3 Experimental Process:\n2.3.1 SJSA-1 cells were inoculated into a 96-well cell plate with black transparent bottom at 4000 cells/100 μl/well, and cultured overnight at 37° C.;\n2.3.3 Fixation: the cell plate was taken out, the culture medium was removed, and 50 μL of 4% paraformaldehyde solution was added to each well to fix for 10 min;\n2.3.4 50 μl of 0.1 M glycine was added to neutralize for 10 min;\n2.3.5 Washing was performed with 1×PBS (phosphate buffer solution pH7.2) twice;\n2.3.6 Permeabilization: 50 μL of 0.2% TritonX-100 (Triton) was added per well, and permeabilization was carried out at room temperature for 10 min;\n2.3.7 Washing was performed with 1×PBS (phosphate buffer solution pH7.2) twice;\n2.3.9 Washing was performed with 1×PBS (phosphate buffer solution pH7.2) for three times; and\n2.3.10 Scanning and analysis were performed by In cell analyzer.\nThe inhibition rate of each compound at each concentration point was calculated according to the following formula, and curve fitting was performed by GraphPad Prism 6.0 software to obtain the IC50 value."}, "[2]": {"experiment": "Pharmacokinetics in ICR mice after intravenous and intragastric administration", "type": "in vivo", "conditions": "for MRT last: read-out: MRT(0-t); for MRT inf: read-out: MRT(0-∞); for Vd: read-out: Vz", "outline": "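Fasted male ICR mice, n=3/route; 2 mg/kg i.v., 5 mg/kg p.o. (gavage); vehicle 5% DMSO + 40% PEG400 + 55% of 10% HP-β-CD in saline. Plasma by LC-MS/MS, range 1-2000 ng/ml. AUC, t1/2, MRT, Cmax, Tmax, F, Vz, CL derived.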"}, "[3]": {"target": "T1, MDM2 (Homo sapiens, UniProt Q00987)", "T1 construct": "made in house", "T1 sequence (Q00987 whole entry)": "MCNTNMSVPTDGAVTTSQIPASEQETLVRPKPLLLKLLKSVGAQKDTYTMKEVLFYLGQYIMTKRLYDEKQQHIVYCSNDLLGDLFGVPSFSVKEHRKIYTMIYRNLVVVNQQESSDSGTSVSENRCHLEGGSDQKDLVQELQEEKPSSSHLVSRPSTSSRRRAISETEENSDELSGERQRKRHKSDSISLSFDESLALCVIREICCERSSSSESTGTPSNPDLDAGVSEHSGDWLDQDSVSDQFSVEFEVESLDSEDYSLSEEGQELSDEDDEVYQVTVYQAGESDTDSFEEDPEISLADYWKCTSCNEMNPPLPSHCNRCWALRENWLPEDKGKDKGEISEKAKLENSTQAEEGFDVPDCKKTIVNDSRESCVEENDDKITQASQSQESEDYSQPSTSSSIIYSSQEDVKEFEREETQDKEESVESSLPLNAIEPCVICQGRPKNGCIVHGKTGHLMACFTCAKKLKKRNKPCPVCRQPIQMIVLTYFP", "experiment": "Inhibition test of MDM2-P53 (GST-MDM2, Biotin-P53, Anti-GST-Tb, SA-XL665)", "type": "binding", "outline": "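Binding was measured by TR-FRET with GST-MDM2 at 4 nM final in PBS with 0.1% BSA, 5 mM DTT and 1 mM AEBSF. Compounds were tested as twelve-point 5-fold dilutions and incubated with the detection mix for 90 min at 25 °C with shaking before plate-reader reading and curve fitting.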"}, "[4]": {"conditions": "ICR mice, IV 2 mg/kg, individual animal, 2 mg/kg"}, "[5]": {"conditions": "ICR mice, PO 5 mg/kg, individual animal, 5 mg/kg"}, "[6]": {"conditions": "male, ICR, mouse, plasma, iv, 2 mg/kg, ICR mice, IV 2 mg/kg, individual animal"}, "[7]": {"conditions": "male, ICR, mouse, plasma, iv, 2 mg/kg, ICR mice, IV 2 mg/kg, mean of 3 animals"}, "[8]": {"conditions": "male, ICR, mouse, plasma, po, 5 mg/kg, ICR mice, PO 5 mg/kg, individual animal"}, "[9]": {"conditions": "male, ICR, mouse, plasma, po, 5 mg/kg, ICR mice, PO 5 mg/kg, mean of 3 animals"}}, "note": "Several values for one entry are separate records, joined by “and”; a condition that tells them apart may be missing. Identical values can stand only once. Like-named read-outs stand apart in the source and are kept apart here."}
{"compound": "COc1cc(OC(C)C)ncc1-c1nc2c(n1C(C)C)[C@@]1(C(=O)Nc3cc(Cl)ccc31)N(c1cc(Cl)ccc1C)C2=O", "note": "[Example S-69, (S)-6-chloro-5′-(5-chloro-2-methylphenyl)-2′-(6-isopropoxy-4-methoxypyridin-3-yl)-3′-isopropyl-3′H-spiro[dihydroindole-3,4′-pyrrolo[3,4-d]imidazole]-2,6′(5′H)-dione]", "values": [{"measurement": "IC50", "setting": "[1]", "value": 2.29, "unit": "nM"}, {"measurement": "AUC(0-t)", "setting": "[2]; [4]", "value": "50006.21 ng·h/mL and 52203.96 ng·h/mL"}, {"measurement": "AUC(0-∞)", "setting": "[2]; [4]", "value": "50659.35 ng·h/mL and 52314.11 ng·h/mL"}, {"measurement": "CL", "setting": "[2]; [4]", "value": 0.66, "unit": "mL/min/kg"}, {"measurement": "Cmax", "setting": "[2]; [4]", "value": "5141.60 ng/mL and 6038.43 ng/mL"}, {"measurement": "MRT(0-t)", "setting": "[2]; [4]", "value": "4.62 h and 4.30 h"}, {"measurement": "MRT(0-∞)", "setting": "[2]; [4]", "value": "4.95 h and 4.35 h"}, {"measurement": "Tmax", "setting": "[2]; [4]", "value": "0.50 h and 0.08 h"}, {"measurement": "Vz", "setting": "[2]; [4]", "value": 0.23, "unit": "L/kg"}, {"measurement": "t1/2", "setting": "[2]; [4]", "value": "4.02 h and 2.83 h"}, {"measurement": "AUC(0-t)", "setting": "[2]; [5]", "value": "106563.84 ng·h/mL and 85266.27 ng·h/mL"}, {"measurement": "AUC(0-∞)", "setting": "[2]; [5]", "value": "106654.00 ng·h/mL and 85298.58 ng·h/mL"}, {"measurement": "Cmax", "setting": "[2]; [5]", "value": "10867.97 ng/mL and 11828.43 ng/mL"}, {"measurement": "MRT(0-t)", "setting": "[2]; [5]", "value": "5.03 h and 4.46 h"}, {"measurement": "MRT(0-∞)", "setting": "[2]; [5]", "value": "5.04 h and 4.47 h"}, {"measurement": "t1/2", "setting": "[2]; [5]", "value": "2.28 h and 2.03 h"}, {"measurement": "AUC(0-inf)", "setting": "[2]; [6]", "value": 53200, "unit": "ng·h/mL"}, {"measurement": "clearance", "setting": "[2]; [6]", "value": 0.63, "unit": "mL/min/kg"}, {"measurement": "AUC(0-t)", "setting": "[2]; male, ICR, mouse, plasma, iv, 2 mg/kg, ICR mice, IV 2 mg/kg, individual animal, read-out: AUC(0-t)", "value": 53100, "unit": "ng·h/mL"}, {"measurement": "Cmax", "setting": "[2]; male, ICR, mouse, plasma, iv, 2 mg/kg, ICR mice, IV 2 mg/kg, individual animal, read-out: Cmax", "value": 5980, "unit": "ng/mL"}, {"measurement": "MRT last", "setting": "[2]; [6]", "value": 4.38, "unit": "h"}, {"measurement": "MRT inf", "setting": "[2]; [6]", "value": 4.44, "unit": "h"}, {"measurement": "Vd", "setting": "[2]; [6]", "value": 0.16, "unit": "L/kg"}, {"measurement": "half-life", "setting": "[2]; male, ICR, mouse, plasma, iv, 2 mg/kg, ICR mice, IV 2 mg/kg, individual animal, read-out: t1/2 (converted)", "value": 2.88, "unit": "h"}, {"measurement": "AUC(0-inf)", "setting": "[2]; [7]", "value": 52100, "unit": "ng·h/mL"}, {"measurement": "clearance", "setting": "[2]; [7]", "value": 0.64, "unit": "mL/min/kg"}, {"measurement": "AUC(0-t)", "setting": "[2]; male, ICR, mouse, plasma, iv, 2 mg/kg, ICR mice, IV 2 mg/kg, mean of 3 animals, read-out: AUC(0-t)", "value": 51800, "unit": "ng·h/mL"}, {"measurement": "Cmax", "setting": "[2]; male, ICR, mouse, plasma, iv, 2 mg/kg, ICR mice, IV 2 mg/kg, mean of 3 animals, read-out: Cmax", "value": 5720, "unit": "ng/mL"}, {"measurement": "MRT last", "setting": "[2]; [7]", "value": 4.43, "unit": "h"}, {"measurement": "MRT inf", "setting": "[2]; [7]", "value": 4.58, "unit": "h"}, {"measurement": "Tmax", "setting": "[2]; male, ICR, mouse, plasma, iv, 2 mg/kg, ICR mice, IV 2 mg/kg, mean of 3 animals, read-out: Tmax", "value": 0.222, "unit": "h"}, {"measurement": "Vd", "setting": "[2]; [7]", "value": 0.18, "unit": "L/kg"}, {"measurement": "half-life", "setting": "[2]; male, ICR, mouse, plasma, iv, 2 mg/kg, ICR mice, IV 2 mg/kg, mean of 3 animals, read-out: t1/2 (converted)", "value": 3.24, "unit": "h"}, {"measurement": "AUC(0-inf)", "setting": "[2]; [8]", "value": 69300, "unit": "ng·h/mL"}, {"measurement": "AUC(0-t)", "setting": "[2]; male, ICR, mouse, plasma, po, 5 mg/kg, ICR mice, PO 5 mg/kg, individual animal, read-out: AUC(0-t)", "value": 69200, "unit": "ng·h/mL"}, {"measurement": "Cmax", "setting": "[2]; male, ICR, mouse, plasma, po, 5 mg/kg, ICR mice, PO 5 mg/kg, individual animal, read-out: Cmax", "value": 7630, "unit": "ng/mL"}, {"measurement": "MRT last", "setting": "[2]; [8]", "value": 4.92, "unit": "h"}, {"measurement": "MRT inf", "setting": "[2]; [8]", "value": 4.94, "unit": "h"}, {"measurement": "Tmax", "setting": "[2]; male, ICR, mouse, plasma, po, 5 mg/kg, ICR mice, PO 5 mg/kg, individual animal, read-out: Tmax", "value": 2, "unit": "h"}, {"measurement": "half-life", "setting": "[2]; male, ICR, mouse, plasma, po, 5 mg/kg, ICR mice, PO 5 mg/kg, individual animal, read-out: t1/2 (converted)", "value": 2.24, "unit": "h"}, {"measurement": "AUC(0-inf)", "setting": "[2]; [9]", "value": 87100, "unit": "ng·h/mL"}, {"measurement": "AUC(0-t)", "setting": "[2]; male, ICR, mouse, plasma, po, 5 mg/kg, ICR mice, PO 5 mg/kg, mean of 3 animals, read-out: AUC(0-t)", "value": 87000, "unit": "ng·h/mL"}, {"measurement": "Cmax", "setting": "[2]; male, ICR, mouse, plasma, po, 5 mg/kg, ICR mice, PO 5 mg/kg, mean of 3 animals, read-out: Cmax", "value": 10100, "unit": "ng/mL"}, {"measurement": "MRT last", "setting": "[2]; [9]", "value": 4.8, "unit": "h"}, {"measurement": "MRT inf", "setting": "[2]; [9]", "value": 4.82, "unit": "h"}, {"measurement": "Tmax", "setting": "[2]; male, ICR, mouse, plasma, po, 5 mg/kg, ICR mice, PO 5 mg/kg, mean of 3 animals, read-out: Tmax", "value": 2, "unit": "h"}, {"measurement": "half-life", "setting": "[2]; male, ICR, mouse, plasma, po, 5 mg/kg, ICR mice, PO 5 mg/kg, mean of 3 animals, read-out: t1/2 (converted)", "value": 2.18, "unit": "h"}, {"measurement": "AUC(0-t)", "setting": "[2]; male, ICR, mouse, plasma, po, 5 mg/kg, oral intragastric administration 5 mg/kg, read-out: AUC0-t", "value": 87000, "unit": "ng·h/mL"}, {"measurement": "half-life", "setting": "[2]; male, ICR, mouse, plasma, po, 5 mg/kg, oral intragastric administration 5 mg/kg, read-out: half-life (converted)", "value": 2.18, "unit": "h"}, {"measurement": "bioavailability", "setting": "[2]; male, mouse, plasma, ICR mice, PO 5 mg/kg vs IV 2 mg/kg, from mean values, read-out: F* (bioavailability)", "value": 67.2, "unit": "%"}, {"measurement": "IC50", "setting": "[3]", "value": 1.78, "unit": "nM"}]}
